Data set [1] can be described thus: Selectivity index, ratio of CC50 for human MT4 cells to EC50 for wild-type HIV1 3B reverse transcriptase infected in human MT4 cells. Conditions: read-out: Ratio CC50/EC50. Format: toxicity, cell-based.
In data set [2] the test system is Human immunodeficiency virus 1. In words: Fold resistance, ratio of EC50 for HIV1 reverse transcriptase K103N mutant infected in human MT4 cells to EC50 for wild-type HIV1 3B reverse transcriptase infected in human MT4 cells. Format: cell-based.
Data set [3] in a line: Selectivity index, ratio of CC50 for human MT4 cells to EC50 for HIV1 RES056 reverse transcriptase K103N/Y181C double mutant infected in human MT4 cells. The settings on record: read-out: Ratio CC50/EC50. In kind it is toxicity, cell-based.
Data set [4] can be described thus: (§1) Cytotoxicity against human MT4 cells assessed as reduction in cell viability by MTT assay. Format: cell-based. The settings on record: MT4 cells. Background: Formazan colour is commonly taken as a measure of viable cells.
Data set [5] has as its system Human immunodeficiency virus 1. The data set is described as follows: Fold resistance, ratio of EC50 for HIV1 reverse transcriptase Y181C mutant infected in human MT4 cells to EC50 for wild-type HIV1 3B reverse transcriptase infected in human MT4 cells. In kind it is cell-based.
For data set [6], the system named is Human immunodeficiency virus 1. The data set is described as follows: Fold resistance, ratio of EC50 for HIV1 reverse transcriptase E138K mutant infected in human MT4 cells to EC50 for wild-type HIV1 3B reverse transcriptase infected in human MT4 cells. In kind it is cell-based.
The test system of another data set is MT4. The data set is described as §1. Format: cell-based. Conditions: mt4.
Data set [7] deals with Human immunodeficiency virus type 1 reverse transcriptase (Human immunodeficiency virus 1), Q72547 [R221A]. The data set is described as follows: Potency index, ratio of ETV EC50 to test compound EC50 for HIV1 reverse transcriptase Y188L mutant infected in human MT4 cells. Format: cell-based.
The test system of data set [8] is Human immunodeficiency virus type 1 reverse transcriptase (Human immunodeficiency virus 1), Q72547 [L100I]. The data set is described as follows: Potency index, ratio of ETV EC50 to test compound EC50 for HIV1 reverse transcriptase L100I mutant infected in human MT4 cells. In kind it is cell-based.
Data set [9] concerns Human immunodeficiency virus type 1 reverse transcriptase (Human immunodeficiency virus 1), Q72547 [E138K]. In words: Potency index, ratio of ETV EC50 to test compound EC50 for HIV1 reverse transcriptase E138K mutant infected in human MT4 cells. In kind it is cell-based.
The target in data set [10] is Human immunodeficiency virus type 1 reverse transcriptase (Human immunodeficiency virus 1) (UniProt Q72547). In words: Potency index, ratio of ETV EC50 to test compound EC50 for wild-type HIV1 3B reverse transcriptase infected in human MT4 cells. Format: cell-based.
Data set [11] deals with Human immunodeficiency virus type 1 reverse transcriptase (Human immunodeficiency virus 1), Q72547 [K103N]. In words: Potency index, ratio of ETV EC50 to test compound EC50 for HIV1 reverse transcriptase K103N mutant infected in human MT4 cells. In kind it is cell-based.
Data set [12] concerns Human immunodeficiency virus type 1 reverse transcriptase (Human immunodeficiency virus 1), Q72547 [K103N,Y181C]. In words: Potency index, ratio of ETV EC50 to test compound EC50 for HIV1 RES056 reverse transcriptase K103N/Y181C double mutant infected in human MT4 cells. In kind it is cell-based.
For data set [13], the system named is Human immunodeficiency virus type 1 reverse transcriptase (Human immunodeficiency virus 1), Q72547 [F227L,V106A]. In words: Potency index, ratio of ETV EC50 to test compound EC50 for HIV1 RES056 reverse transcriptase F227L/V106A double mutant infected in human MT4 cells. Format: cell-based.
In data set [14] the test system is Human immunodeficiency virus type 1 reverse transcriptase (Human immunodeficiency virus 1), Q72547 [R221A]. The data set is described as follows: Inhibition of HIV1 reverse transcriptase Y188L mutant infected in human MT4 cells assessed as protection against virus-induced cytotoxicity by MTT assay. In kind it is cell-based.
Data set [15] relates to Human immunodeficiency virus type 1 reverse transcriptase (Human immunodeficiency virus 1), Q72547 [F227L,V106A]. In words: Inhibition of HIV1 RES056 reverse transcriptase F227L/V106A double mutant infected in human MT4 cells assessed as protection against virus-induced cytotoxicity by MTT assay. Format: cell-based.
Data set [16] concerns Human immunodeficiency virus type 1 reverse transcriptase (Human immunodeficiency virus 1), Q72547 [Y181C]. In words: Inhibition of HIV1 reverse transcriptase Y181C mutant infected in human MT4 cells assessed as protection against virus-induced cytotoxicity by MTT assay. Format: cell-based.
Data set [17] has as its system Human immunodeficiency virus type 1 reverse transcriptase (Human immunodeficiency virus 1), Q72547 [L100I]. In words: Inhibition of HIV1 reverse transcriptase L100I mutant infected in human MT4 cells assessed as protection against virus-induced cytotoxicity by MTT assay. In kind it is cell-based.
Data set [18] deals with Human immunodeficiency virus type 1 reverse transcriptase (Human immunodeficiency virus 1), Q72547 [K103N]. The data set is described as follows: Inhibition of HIV1 reverse transcriptase K103N mutant infected in human MT4 cells assessed as protection against virus-induced cytotoxicity by MTT assay. Format: cell-based.

Activity calls are given as the source filed them. No cut-off for these calls is given here.

In the case of `Cc1cc(C#N)cc(C)c1Oc1nc(NC2CCN(Cc3ccc(C(N)=O)cc3)CC2)nc2cc[nH]c12`, the selectivity ratio in data set [1] is 1830; in data set [3], 118. In addition, in [2], the Ratio EC50 is 0.3 to 0.6. For the same molecule, the half-maximal cytotoxic concentration (CC50) – broadly, the concentration at which the toxic effect on the cells reaches its halfway point – in data set [4] turned out to be 15.9 µM.
As to `Cc1cc(C#Cc2ccccn2)cc(C)c1Oc1nc(NC2CCN(Cc3ccc(S(N)(=O)=O)cc3)CC2)nc2ccsc12`, the figures for the selectivity ratio in data set [1] and in data set [3] were 1130 and 12, respectively. In addition, in data set [4], the CC50 was 10.3 µM.
For `Cc1cc(C#N)cc(C)c1Oc1nc(NC2CCN(Cc3n[nH]c(=O)n3C)CC2)nc2ccsc12`, in that order: above 18500, above 15 and above 254 µM.
For `Cc1cc(C#N)cc(C)c1Oc1nc(NC2CCN(Cc3ccc(N4CCCC4)cc3)CC2)nc2ccsc12`, in that order: 133, below 1 and 4.35 µM.
Take `Cc1cc(C#N)cc(C)c1Oc1nc(NC2CCN(Cc3ccc(S(C)(=O)=O)cc3)CC2)nc2cc[nH]c12`: the selectivity ratio in data set [1] worked out at 589; in data set [3], 16. Further, in data set [2], the Ratio EC50 is 0.3 to 0.6. The CC50 in data set [4] came out at 8.12 µM.
Take `O=C1Nc2ccc(Cl)cc2[C@@](C#CC2CC2)(C(F)(F)F)O1` [EFAVIRENZ]: the CC50 in data set [4] is above 6.34 µM.
The same measure, in the same setting: then `Cc1cc(C#N)cc(C)c1Oc1nc(Nc2ccc(C#N)cc2)nc(N)c1Br` [ETRAVIRINE], with 2.16 to 4.59 µM.
Take `Cc1cc(C#N)cc(C)c1Oc1nc(NC2CCN(Cc3ccc(C(N)=O)cc3)CC2)nc2ccn(COCc3ccccc3)c12`: the Ratio EC50 in data set [5] was 0.5 to 0.7; in data set [6], 0.9. Besides, the selectivity ratio in data set [1] is 177; in data set [3] it was 9. In [4], the CC50 is 6.44 µM.
Take `Cc1cc(C#N)cc(C)c1Oc1nc(NC2CCN(Cc3ccc(C(N)=O)cc3)CC2)nc2ccn(S(=O)(=O)c3ccccc3)c12`: the selectivity ratio in data set [1] amounted to 227; in [3] it was 2. For the same molecule, the CC50 in the data set with MT4 was above 39.3 µM.
With `Cc1cc(C#N)cc(C)c1Oc1nc(NC2CCN(Cc3ccc(S(C)(=O)=O)cc3)CC2)nc2ccn(COCc3ccccc3)c12`, in [5], the Ratio EC50 fell in the range of 0.5 to 0.7. The selectivity ratio came to 459 in [1] and 17 in [3]. Moreover, the CC50 in data set [4] turned out to be 10 µM.
For `Cc1cc(C#N)cc(C)c1Oc1nc(NC2CCN(Cc3ccc(S(N)(=O)=O)cc3)CC2)nc2ccn(S(=O)(=O)c3ccccc3)c12`, the selectivity ratio turned out to be 454 in [1] and 33 in [3]. Further, the CC50 in [4] was 3.67 µM.
On to `Cc1cc(C#N)cc(C)c1Oc1nc(NC2CCN(Cc3ccc(S(N)(=O)=O)cc3)CC2)nc2cc[nH]c12`, for which the selectivity ratio in data set [1] was determined as 1050; in [3] it was 61. Moreover, the Ratio EC50 is 0.3 to 0.6 in [2]; 4 to 5 in data set [7]; 1.5 to 2.6 in [8]; 4 to 5 in data set [9]; 1.5 to 2.6 in data set [10]; 4 to 5 in [11]. For the same molecule, the Ratio EC50 in [12] and in data set [13] was 1.5 to 2.6 throughout. Also, the CC50 in [4] worked out at 1.91 µM.
For `Cc1cc(C#Cc2ccncc2)cc(C)c1Oc1nc(NC2CCN(Cc3ccc(S(N)(=O)=O)cc3)CC2)nc2ccsc12`, the selectivity ratio in data set [1] came to 340; in data set [3], 52. The CC50 in data set [4] is 11.5 µM.
The corresponding values for `Cc1cn([C@H]2C[C@H](N=[N+]=[N-])[C@@H](CO)O2)c(=O)[nH]c1=O` [ZIDOVUDINE] are above 1000, above 448 and 7.48 µM.
`Cc1cc(C#N)cc(C)c1Oc1nc(NC2CCN(Cc3cc(=O)[nH]c(=O)[nH]3)CC2)nc2ccsc12`: the inhibition result in data set [14], in data set [15], in data set [16] and in data set [17] was “inactive” each time. The values for the selectivity ratio in [1] and in data set [3] were 18600 and 15, respectively. Also, the CC50 in [4] is 133 µM.
Take `Cc1cc(C#N)cc(C)c1Oc1nc(NC2CCN(Cc3ccc(S(C)(=O)=O)cc3)CC2)nc2ccn(S(=O)(=O)c3ccccc3)c12`: the selectivity ratio in data set [1] came out at 270; in data set [3] it was 26. In addition, the CC50 in data set [4] was determined as 5.15 µM.
Turning to `Cc1cc(C#N)cc(C)c1Oc1nc(NC2CCN(Cc3c[nH]cn3)CC2)nc2ccsc12`, the inhibition result in data set [14], in data set [15], in data set [16] and in [17] was “inactive” throughout. The selectivity ratio in [1] is 4420; in data set [3] it was 21. Besides, in data set [4], the CC50 worked out at 24.3 µM.
In the case of `Cc1cc(C#N)cc(C)c1Oc1nc(NC2CCN(Cc3cn(S(C)(=O)=O)cn3)CC2)nc2ccsc12`, the inhibition result in data set [14], in [15], in data set [16] and in [17] was “inactive” each time. The selectivity ratio in [1] amounted to 3720; in data set [3], 8. In addition, the CC50 in data set [4] was 21.1 µM.
With `Cc1cc(C#N)cc(C)c1Oc1nc(NC2CCN(Cc3ccco3)CC2)nc2ccsc12`, the inhibition result in data set [14], in data set [15], in data set [16] and in [17] was “inactive” each time. For the same molecule, the selectivity ratio in data set [1] was above 76500. Also, the inhibition entry in data set [18] was “Active”. Moreover, in [4], the CC50 is above 254 µM.
Turning to `Cc1cc(C#N)cc(C)c1Oc1nc(NC2CCN(Cc3ccc(S(N)(=O)=O)cc3)CC2)nc2ccn(COCc3ccccc3)c12`, the Ratio EC50 in data set [5] is 0.5 to 0.7. Besides, the values for the selectivity ratio in data set [1] and in data set [3] were 632 and 10, respectively. Also, in [4], the CC50 is 4.84 µM.
For `Cc1cc(C#N)cc(C)c1Nc1nc(NC2CCN(Cc3ccc(S(N)(=O)=O)cc3)CC2)nc2ccsc12`, the results for the selectivity ratio in data set [1] and in data set [3] were above 159000 and above 7440, respectively. In data set [4], the CC50 is above 227 µM.
Turning to `Cc1cc(C#Cc2cccnc2)cc(C)c1Oc1nc(NC2CCN(Cc3ccc(S(N)(=O)=O)cc3)CC2)nc2ccsc12`, the selectivity ratio in data set [1] was found to be 157; in data set [3], 42. The CC50 in data set [4] was found to be 6.39 µM.
For `Cc1cc(/C=C/C#N)cc(C)c1Nc1nc(NC2CCN(Cc3ccc(S(N)(=O)=O)cc3)CC2)nc2ccsc12`, in that order: 1880, 419 and 2.3 µM.
Consider `Cc1ccnc2c1NC(=O)c1cccnc1N2C1CC1` [NEVIRAPINE], for which the CC50 in data set [4] is above 15 µM.

Values taken from ChEMBL document CHEMBL4251740, “Further Exploring Solvent-Exposed Tolerant Regions of Allosteric Binding Pocket for Novel HIV-1 NNRTIs Discovery” (ACS Med Chem Lett, 2018).
